Source: article PMC9936538, “Structure–Activity Relationship of N-Ethyl-Hexedrone Analogues: Role of the α-Carbon Side-Chain Length in the Mechanism of Action, Cytotoxicity, and Behavioral Effects in Mice” (ACS Chemical Neuroscience, 2023)

Assays:
[1] = target: T1, hDAT (Homo sapiens, UniProt Q01959); assay: Transporter binding, [3H]WIN 35,428 binding at hDAT (HEK293 membranes)
T1 construct: expressed in transfected cells; host or cells: HEK293
Experimental: (§1) For membrane preparation, cells were harvested from 80 to 90% confluent dishes. HEK293 cells were washed with ice-cold phosphate-buffered saline (PBS), mechanically detached from the dish using a plastic scraper, and pelleted by centrifugation (400g for 10 min at 4 °C). The pellet was resuspended in HME buffer (20 mM HEPES NaOH, 1 mM EDTA, 2 mM MgCl2; pH 7.4), subjected to two freeze–thaw cycles in liquid nitrogen and homogenized through sonication at 4 °C. Membranes were then collected by centrifugation (40,000g for 30 min at 4 °C) and resuspended in an appropriate volume of HME buffer. The different membrane preparations aliquots were kept at −80 °C. Protein concentration was determined using the Bio-Rad Protein Reagent (Bio-Rad Laboratories, Hercules, CA).
(§2) Binding assays were performed as described.[6] […] This nonspecific binding also allows subtracting from the total binding values of the binding to other components such as membrane lipids or microfiber filters. Incubation was performed for 1 h at 22 °C. Binding reactions are stopped by rapid filtration of the membranes through GF/C glass microfiber filters presoaked with 0.5% polyethyleneimine and rapid washing with ice-cold wash buffer (120 mM NaCl, 2 mM MgCl2, 10 mM Tris, and 100 μM ZnCl2 for hDAT, and […], 2 mM MgCl2, and 10 mM Tris, for hSERT). Thereafter, the filters are placed into vials, a scintillation cocktail is added and trapped radioactivity is quantified by liquid scintillation counting. Specific binding of each drug to the transporter was defined as the difference between total binding (binding buffer in absence of the drug) and nonspecific binding. For each cathinone, four independent experiments carried out on duplicates were performed.
(§3) For in vitro assays, data were normalized with 100% defined as the mean of the technical replicates in the control group and expressed as mean ± SEM. Nonlinear regression was used to fit the different competition curves. Data were plotted and best fitted to a sigmoidal dose–response curve from which an IC50 or LC50 value was obtained. Transporter ratios were calculated as (1/DAT IC50: 1/SERT IC50). […] The Cheng–Prusoff equation was used to calculate Ki (affinity): Ki = EC50/(1 + [radioligand concentration/Kd]).[65] The sample size for behavioral experiments was determined using GPower software. One-way or two-way ANOVA, and subsequent Tukey’s posthoc test, conducted only if F was significant, was used to determine the effects of cathinones on cytotoxicity, HLA, OF, and CPP experiments. The α error probability was set at 0.05 (p < 0.05). The exact size group for the behavioral experiments is shown in the corresponding figure legends. All statistic calculations were carried out using GraphPad Prism (GraphPad software, San Diego, CA, USA).

[2] = target: T1, hDAT; assay: Monoamine uptake inhibition, [3H]MPP+ uptake at hDAT in transfected HEK293 cells; format: cell-based; settings: for hDAT/hSERT inhibition ratio: 1/DAT IC50:1/SERT IC50, calculated with the original raw data
Experimental: Human embryonic kidney cells (HEK293) stably transfected with the human DAT and SERT were used for both the uptake inhibition and transporter binding assays.[6] Cells were cultured in DMEM supplemented with heat-inactivated 10% fetal bovine serum (FBS), […], and 100 U/mL penicillin at 37 °C in a 5% CO2 humidified atmosphere. Geneticin (G418; 50 μg/mL) was added to maintain the selection process. Upon approximately 80% confluence, cells were washed with 5 mL of phosphate-buffered saline (PBS) and 1 mL of trypsin/EDTA was added. After 3 min, 9 mL of DMEM was added to stop cell trypsinization. If necessary, centrifugation was performed to pellet the cells. Cells were then resuspended, counted, and seeded onto poly-D-lysine coated (24 h/prior to the experiment) 96-well plates at a density of 0.36 million cells per well for the uptake inhibition assays.
Assays were performed as previously described.[8] On the test day, the medium was removed from the cell culture 96-well plates and immediately replaced with 200 μL of Krebs-HEPES-buffer (KHB; 10 mM HEPES, 120 mM NaCl, 3 mM KCl, 2 mM CaCl2·2H2O, 2 mM MgCl2·6H2O supplemented with 20 mM D-glucose; pH 7.3). To ensure equilibrated conditions, cells were incubated with different concentrations of the drugs in KHB at a final volume of 50 μL/well for 5 min (preincubation). The preincubation solution was removed, and cells were incubated with the tritiated compounds, 0.02 μM [^3H]MPP^+ for hDAT and 0.1 μM [^3H]5-HT for hSERT, together with various concentrations of the test drugs in KHB. The uptake incubation times were 3 min for hDAT and 1 min for hSERT. The reaction was stopped by rapid removal of the incubation solution and washout with ice-cold KHB. Cells were lysed with 1% sodium dodecyl sulfate, and lysates were subsequently transferred to vials containing scintillation fluid. Radioactivity was quantified with a beta-scintillation counter (PerkinElmer, Waltham, MA, USA). The uptake in the absence of the test drugs was normalized to 100%, and the uptake in the presence of various concentrations of cathinones was expressed as a percentage thereof. […] Four independent experiments carried out on triplicates were performed.
as §3

[3] = target: T2, hSERT (Homo sapiens, UniProt P31645); assay: Transporter binding, [3H]imipramine binding at hSERT (HEK293 membranes)
T2 construct: expressed in transfected cells; host or cells: HEK293
T2 sequence (P31645 whole entry): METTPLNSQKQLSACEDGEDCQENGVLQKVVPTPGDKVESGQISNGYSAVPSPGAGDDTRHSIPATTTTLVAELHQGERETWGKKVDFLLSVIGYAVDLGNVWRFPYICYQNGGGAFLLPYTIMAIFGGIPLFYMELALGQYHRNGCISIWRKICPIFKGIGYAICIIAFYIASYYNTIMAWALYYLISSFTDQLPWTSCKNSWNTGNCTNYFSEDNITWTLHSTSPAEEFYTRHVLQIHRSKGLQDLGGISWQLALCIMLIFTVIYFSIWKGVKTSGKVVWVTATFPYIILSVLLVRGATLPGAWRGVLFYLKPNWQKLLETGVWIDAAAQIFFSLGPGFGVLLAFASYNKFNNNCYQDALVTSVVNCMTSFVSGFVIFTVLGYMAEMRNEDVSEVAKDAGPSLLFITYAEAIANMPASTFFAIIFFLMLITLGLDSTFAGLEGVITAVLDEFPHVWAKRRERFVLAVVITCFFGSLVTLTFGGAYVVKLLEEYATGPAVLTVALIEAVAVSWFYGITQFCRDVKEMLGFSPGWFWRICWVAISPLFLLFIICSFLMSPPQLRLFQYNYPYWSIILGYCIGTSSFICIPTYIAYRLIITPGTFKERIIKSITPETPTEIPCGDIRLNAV
Experimental: as §1, §2, §3

T1 sequence (Q01959 whole entry): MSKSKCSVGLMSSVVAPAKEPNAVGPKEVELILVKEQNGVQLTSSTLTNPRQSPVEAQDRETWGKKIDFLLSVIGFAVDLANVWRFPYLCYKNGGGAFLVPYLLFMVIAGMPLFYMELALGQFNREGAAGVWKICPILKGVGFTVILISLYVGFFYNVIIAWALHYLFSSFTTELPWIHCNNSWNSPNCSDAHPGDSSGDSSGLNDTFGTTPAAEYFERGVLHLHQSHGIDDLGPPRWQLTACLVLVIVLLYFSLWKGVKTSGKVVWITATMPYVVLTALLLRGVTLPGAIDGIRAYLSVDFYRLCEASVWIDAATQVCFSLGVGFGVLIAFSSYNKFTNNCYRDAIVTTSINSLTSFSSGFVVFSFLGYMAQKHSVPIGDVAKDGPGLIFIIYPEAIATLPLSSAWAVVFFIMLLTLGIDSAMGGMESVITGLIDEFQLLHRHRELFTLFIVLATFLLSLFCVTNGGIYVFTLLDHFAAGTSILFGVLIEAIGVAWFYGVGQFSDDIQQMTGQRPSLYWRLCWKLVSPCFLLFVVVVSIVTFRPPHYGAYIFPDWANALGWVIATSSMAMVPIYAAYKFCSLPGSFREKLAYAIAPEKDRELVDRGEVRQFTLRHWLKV

Row | SMILES | Ki [1] [nM] | IC50 [2] [nM] | hDAT/hSERT inhibition ratio [2] | reduction of potency inhibiting DA uptake compared with α-PVP ([2]; vs α-PVP) [fold] | Ki [3] [µM] | potency in inhibiting DA uptake compared with NEC ([2]; vs NEC) [fold]
1 | CCNC(C)C(=O)c1ccccc1 (stereo not shown) [NEC, N-ethyl-cathinone] | 2330 | 1440 | 157 | ~10 | > 100 | 
2 | CCCCC(NCC)C(=O)c1ccccc1 (stereo not shown) [NEH, N-ethyl-hexedrone] | 121 | 73 | 1457 |  | 35.9 | ~20
3 | CCCC(NCC)C(=O)c1ccccc1 (stereo not shown) [NEPD, N-ethyl-pentedrone] | 42 | 91 | 844 |  | 24.6 | 
4 | CCNC(CC)C(=O)c1ccccc1 (stereo not shown) [NEB, N-ethyl-buphedrone] | 198 | 305 | 168 |  | 90.1 | 
5 | CCCCCC(NCC)C(=O)c1ccccc1 (stereo not shown) [NEHP, N-ethyl-heptedrone] | 107 | 251 | 426 |  | 40.6 | 
